For one substance, Ap4A-RNA decapping activity results are on record in US20250049894A1, “TREATMENT OF NUDT2 MUTATION” (UNIVERSITÉ DE GENÈVE, priority 2021, published 2025).

The test relates to Ap4A-RNA. The test can be described thus: In vitro Ap4A-RNA decapping assay (cap-labelled RNA, thin-layer chromatography). The settings on record: recombinant protein 250 nM to 750 nM, 37° C., 30 min, TLC. Type of test: biochemical. As for the experimental part:
Briefly, using the Ap4A mixture (ATP and Ap4A) or Ap4A instead of ATP for in vitro transcription by MEGAshortscript™ T7 Transcription Kit (Life technologies; Cat. No. AM1354), we produced a 50 nt RNA. Template is the same as making 50 nt RNA for MEFs transfection. Note that if the mixture is used, this nucleotide mixture (ATP and Ap4A) still has all the components (lysine, inorganic pyrophosphatase etc) added during the Ap4A synthesis. In vitro transcription reaction was carried out at 37° C. for at least 4 h in a 20 μL reaction containing 6 pmol DNA template, 2 μL 10× reaction buffer, 2 μL of nucleotides (75 mM CTP, 75 mM UTP, 75 mM GTP), 2 μL of ATP/Ap4A mixture that we produced above, and 2 μL T7 enzyme mix (MEGAshortscript™ Kit, Life technologies, Cat. No. AM1354). After that, 1 μL TURBO DNase was added and incubated at 37° C. for 15 min to remove the DNA template. Unincorporated nucleotides were removed from the RNA preparation by Microspin G-25 Column (GE Healthcare, Cat. No. 27-5325-01), and the process was repeated twice. The radioactively labelled RNA was separated by 10% urea gel. […]
Decapping reaction products were resolved by PEI-cellulose TLC plates (Merk, Cat. No. 1057250001) and developed in 0.45 M (NH4)2SO4 in a glass chamber at room temperature. […] When required, signals were quantified by ImageQuantTL.

On to “DCP2 (NUDT20): recombinant untagged mouse DCP2 catalytic core domain (95-260 aa)”, for which the Ap4A-RNA decapping activity result is reported as “only NUDT2 has Ap4A-RNA decapping activity”.
